Source: ChEMBL document CHEMBL1150477, “Development of angiotensin II antagonists with equipotent affinity for human AT1 and AT2 receptor subtypes” (Bioorg Med Chem Lett, 1994)
Numbering of substitutions follows the chain as printed.

Key:
[1] = molecular target: T1, Type-2 angiotensin II receptor (Homo sapiens, UniProt P50052); test: […] inhibitory concentration against AT2 receptor of human adrenal membrane
T1 sequence (P50052 whole entry): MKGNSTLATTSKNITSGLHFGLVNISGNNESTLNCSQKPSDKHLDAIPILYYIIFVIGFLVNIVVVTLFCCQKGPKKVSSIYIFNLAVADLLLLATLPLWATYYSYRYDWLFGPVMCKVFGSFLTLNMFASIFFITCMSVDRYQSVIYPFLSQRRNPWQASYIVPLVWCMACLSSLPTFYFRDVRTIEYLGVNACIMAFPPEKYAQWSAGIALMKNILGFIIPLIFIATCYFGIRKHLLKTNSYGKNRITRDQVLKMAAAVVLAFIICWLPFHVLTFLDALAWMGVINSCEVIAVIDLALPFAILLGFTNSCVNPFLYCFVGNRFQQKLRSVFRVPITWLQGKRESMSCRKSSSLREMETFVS

[2] = molecular target: T2, Type-2 angiotensin II receptor (Rattus norvegicus, UniProt P35351); test: […] inhibitory concentration against AT2 receptor of rat adrenal membrane
T2 sequence (P35351 whole entry): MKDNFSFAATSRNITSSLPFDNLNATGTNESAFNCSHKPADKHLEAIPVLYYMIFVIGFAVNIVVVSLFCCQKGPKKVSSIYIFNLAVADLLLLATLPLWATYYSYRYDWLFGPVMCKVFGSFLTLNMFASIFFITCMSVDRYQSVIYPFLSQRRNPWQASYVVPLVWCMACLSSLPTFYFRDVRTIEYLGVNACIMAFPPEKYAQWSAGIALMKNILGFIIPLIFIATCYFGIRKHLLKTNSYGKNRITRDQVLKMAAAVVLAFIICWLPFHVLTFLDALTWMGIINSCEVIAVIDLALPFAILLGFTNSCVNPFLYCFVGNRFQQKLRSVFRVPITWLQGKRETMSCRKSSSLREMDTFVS

[3] = molecular target: T3, Type-1 angiotensin II receptor (Oryctolagus cuniculus, UniProt P34976); test: […] inhibitory concentration against Angiotensin II receptor, type 1 of rabbit aorta membrane
T3 sequence (P34976 whole entry): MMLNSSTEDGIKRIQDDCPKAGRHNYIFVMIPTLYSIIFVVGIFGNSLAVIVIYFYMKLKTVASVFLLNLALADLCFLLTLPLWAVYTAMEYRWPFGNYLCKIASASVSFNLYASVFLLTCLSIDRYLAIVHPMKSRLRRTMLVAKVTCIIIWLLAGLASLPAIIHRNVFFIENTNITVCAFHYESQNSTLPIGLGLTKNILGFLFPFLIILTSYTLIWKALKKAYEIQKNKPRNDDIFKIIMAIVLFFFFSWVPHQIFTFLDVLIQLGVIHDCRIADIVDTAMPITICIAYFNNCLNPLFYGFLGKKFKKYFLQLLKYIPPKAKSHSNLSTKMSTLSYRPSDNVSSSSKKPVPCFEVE

[4] = molecular target: T2, Type-2 angiotensin II receptor; test: […] inhibitory concentration against Angiotensin II, type 2 of rat midbrain membrane
[5] = molecular target: T4, Angiotensin II receptor (AT-1) type-1 (Rattus norvegicus, UniProt P29089+P25095); test: […] inhibitory concentration against Angiotensin II receptor, type 1 of rat adrenal membrane
T4 sequence (P29089 whole entry): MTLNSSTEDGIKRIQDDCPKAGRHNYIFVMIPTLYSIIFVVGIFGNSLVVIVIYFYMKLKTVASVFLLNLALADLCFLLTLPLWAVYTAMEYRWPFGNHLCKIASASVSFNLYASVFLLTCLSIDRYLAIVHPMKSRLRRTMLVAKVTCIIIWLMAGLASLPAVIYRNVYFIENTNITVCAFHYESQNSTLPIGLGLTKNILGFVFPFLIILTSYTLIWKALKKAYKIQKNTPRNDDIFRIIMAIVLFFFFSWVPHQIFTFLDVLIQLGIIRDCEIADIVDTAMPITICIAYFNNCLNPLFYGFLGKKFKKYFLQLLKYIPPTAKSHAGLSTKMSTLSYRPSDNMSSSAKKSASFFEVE
T4 sequence (P25095 whole entry): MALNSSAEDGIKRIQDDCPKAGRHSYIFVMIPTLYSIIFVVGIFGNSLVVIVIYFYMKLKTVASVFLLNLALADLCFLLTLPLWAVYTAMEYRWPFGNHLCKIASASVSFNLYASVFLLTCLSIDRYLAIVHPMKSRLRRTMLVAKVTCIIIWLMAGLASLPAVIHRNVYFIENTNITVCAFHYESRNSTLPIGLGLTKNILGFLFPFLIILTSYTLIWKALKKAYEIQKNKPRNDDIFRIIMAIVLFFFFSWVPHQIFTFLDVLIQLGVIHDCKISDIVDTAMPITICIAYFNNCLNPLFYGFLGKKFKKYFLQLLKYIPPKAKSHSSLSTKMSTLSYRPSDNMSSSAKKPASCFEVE

[6] = test system: Canis familiaris; test: In vivo inhibition of angiotensin II induced pressor response in dogs at a dose of 1.0 mg/Kg after 6 hr administered intravenously; assay type: functional; settings: Canis lupus familiaris, iv
[7] = test system: Rattus norvegicus; test: In vivo inhibition of angiotensin II induced pressor response in rats at a dose of 1.0 mg/Kg after 6 hr administered intravenously; assay type: functional; settings: iv
[8] = organism: Oryctolagus cuniculus; test: Ratio of inhibitory concentration against AT2 receptor of rat midbrain to AT1 receptor of rabbit aorta
[9] = molecular target: Angiotensin II receptor (Homo sapiens) (UniProt P30556+P50052); test: Ratio of inhibitory concentration against AT2 receptor and AT1 receptor of human adrenal membrane
[10] = molecular target: Angiotensin II receptor (Rattus norvegicus) (UniProt P29089+P25095+P35351); test: Ratio of inhibitory concentration against AT2 receptor and AT1 receptor of rat adrenal membrane
[11] = molecular target: T5, Type-1 angiotensin II receptor (Homo sapiens, UniProt P30556); test: […] inhibitory concentration against Angiotensin II receptor, type 1 of human adrenal membrane
T5 sequence (P30556 whole entry): T3 sequence (P34976 whole entry) with M2I, A49V, V254I, V270I, H272R, K311R, S349T, V353A

[12] = test system: Rattus norvegicus; test: In vivo inhibition of angiotensin II induced pressor response in rats at a dose of 1.0 mg/Kg administered intravenously; assay type: functional; settings: iv
[13] = test system: Canis familiaris; test: In vivo inhibition of angiotensin II induced pressor response in dogs at a dose of 1.0 mg/Kg administered intravenously; assay type: functional; settings: Canis lupus familiaris, iv

Sequence of Angiotensin II receptor (Homo sapiens) (P30556 whole entry, looked up, one chain of several): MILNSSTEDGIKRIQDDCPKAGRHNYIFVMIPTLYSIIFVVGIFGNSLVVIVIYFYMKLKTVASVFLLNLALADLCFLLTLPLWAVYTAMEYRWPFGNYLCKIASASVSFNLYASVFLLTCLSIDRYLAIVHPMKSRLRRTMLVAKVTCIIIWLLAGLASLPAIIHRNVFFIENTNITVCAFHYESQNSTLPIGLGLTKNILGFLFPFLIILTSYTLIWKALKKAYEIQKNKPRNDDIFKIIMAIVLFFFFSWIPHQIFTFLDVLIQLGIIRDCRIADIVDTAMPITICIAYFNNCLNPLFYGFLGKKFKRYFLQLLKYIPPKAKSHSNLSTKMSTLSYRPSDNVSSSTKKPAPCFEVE

IC50 [1] [pM]	IC50 [2] [pM]	IC50 [3] [pM]	IC50 [4] [pM]	IC50 [5] [pM]	Ratio [8]	Ratio [9]	Ratio [10]	IC50 [11] [pM]	Compound	inhibition in vivo at 1 mg/kg [6] [%]	inhibition in vivo at 1 mg/kg [7] [%]	inhibition in vivo at 1 mg/kg [12] [%]	inhibition in vivo at 1 mg/kg [13] [%]
6200	770	570	390	500	1.2	0.87	1.83	8100	CCc1nc2ccc(NC(=O)N(C)C(C)C)cc2c(=O)n1Cc1ccc(-c2ccccc2S(=O)(=O)NC(=O)OCCC2CC2)cc1F	48	62	91	89
3500	380	520	1000	170	1.7	2.3	2.1	1500	CCCc1nc2ccc(NC(=O)NC(C)C)cc2c(=O)n1Cc1ccc(-c2ccccc2S(=O)(=O)NC(=O)COCC(C)C)cc1F				
8000	220	230	210	140	1.3	4.4	1.5	1900	CCCCc1nc2ccc(NC(=O)N(C)C(C)C)cc2c(=O)n1Cc1ccc(-c2ccccc2S(=O)(=O)NC(=O)OCCC(C)C)cc1F				
4400	210	200	280	110	1.4	5.3	2.3	840	CCCc1nc2ccc(NC(=O)NC(C)C)cc2c(=O)n1Cc1ccc(-c2ccccc2S(=O)(=O)NC(=O)c2ccc(CC)cc2F)cc1F				
